Results taken from ChEMBL document CHEMBL4800722, “Data for DCP probe BI 605906” (2021).

How the values were obtained:
[1] = target: Bone morphogenetic protein receptor type-1B (Homo sapiens) (UniProt O00238); experiment: BMPR1B (ALK6) Invitrogen Lab (UK) kinase screen (BI); details: Compound concentration 1.0 uM
[2] = target: CDK2/Cyclin A1 (Homo sapiens) (UniProt P24941+P78396); experiment: CDK2/CYCLIN A1 Invitrogen Lab (UK) kinase screen (BI); type: protein-complex assay; details: Compound concentration 1.0 uM
[3] = target: Serine/threonine-protein kinase WNK3 (Homo sapiens) (UniProt Q9BYP7); experiment: WNK3 Invitrogen Lab (UK) kinase screen (BI); details: Compound concentration 1.0 uM
[4] = target: Dual specificity mitogen-activated protein kinase kinase 6 (Homo sapiens) (UniProt P52564); experiment: MAP2K6 Invitrogen Lab (UK) kinase screen (BI); details: Compound concentration 1.0 uM
[5] = target: MAP kinase-interacting serine/threonine-protein kinase 2 (Homo sapiens) (UniProt Q9HBH9); experiment: MKNK2 (MNK2) Invitrogen Lab (UK) kinase screen (BI); details: Compound concentration 1.0 uM
[6] = target: Proto-oncogene tyrosine-protein kinase receptor Ret (Homo sapiens) (UniProt P07949); experiment: RET Invitrogen Lab (UK) kinase screen (BI)
[7] = target: Proto-oncogene tyrosine-protein kinase Src (Homo sapiens) (UniProt P12931); experiment: SRC N1 Invitrogen Lab (UK) kinase screen (BI); details: Compound concentration 1.0 uM
[8] = target: Tyrosine-protein kinase Yes (Homo sapiens) (UniProt P07947); experiment: YES1 Invitrogen Lab (UK) kinase screen (BI); details: Compound concentration 1.0 uM
[9] = target: Tyrosine-protein kinase CSK (Homo sapiens) (UniProt P41240); experiment: CSK DUNDEE kinase screen (BI); details: Compound concentration 10.0 uM
[10] = organism: Homo sapiens; experiment: PKBDPH (PKB delta PH) DUNDEE kinase screen (BI); details: Compound concentration 10.0 uM
[11] = target: Protein kinase C alpha type (Homo sapiens) (UniProt P17252); experiment: PKCA DUNDEE kinase screen (BI); details: Compound concentration 10.0 uM
[12] = target: 5-hydroxytryptamine receptor 1E (Homo sapiens) (UniProt P28566); details: Compound concentration 10.0 uM
[13] = target: 5-hydroxytryptamine receptor 2B (Homo sapiens) (UniProt P41595); details: Compound concentration 10.0 uM
[14] = target: Sodium-dependent noradrenaline transporter (Homo sapiens) (UniProt P23975); details: Compound concentration 10.0 uM
[15] = target: Alpha-2C adrenergic receptor (Homo sapiens) (UniProt P18825); details: Compound concentration 10.0 uM
[16] = target: Beta-1 adrenergic receptor (Homo sapiens) (UniProt P08588); details: Compound concentration 10.0 uM
[17] = organism: Rattus norvegicus; details: Compound concentration 10.0 uM
[18] = target: Chymase (Homo sapiens) (UniProt P23946); details: Compound concentration 10.0 uM
[19] = target: Sodium-dependent dopamine transporter (Homo sapiens, UniProt Q01959); details: Compound concentration 10.0 uM
[20] = target: Endothelin-1 receptor (Homo sapiens) (UniProt P25101); details: Compound concentration 100.0 uM
[21] = target: AP2-associated protein kinase 1 (Homo sapiens, UniProt Q2M2I8)
[22] = target: AMPK alpha2/beta2/gamma3 (Homo sapiens) (UniProt P54646+O43741+Q9UGI9); details: Compound concentration 1.0 uM
[23] = target: CDK18/Cyclin Y (Homo sapiens) (UniProt Q07002+Q8ND76); details: Compound concentration 1.0 uM
[24] = target: Serine/threonine-protein kinase/endoribonuclease IRE1 (Homo sapiens) (UniProt O75460); details: Compound concentration 1.0 uM
[25] = target: Aurora kinase B (Homo sapiens) (UniProt Q96GD4); details: Compound concentration 1.0 uM
[26] = target: Bone morphogenetic protein receptor type-1A (Homo sapiens) (UniProt P36894); details: Compound concentration 1.0 uM
[27] = target: Calcium/calmodulin-dependent protein kinase kinase 1 (Homo sapiens) (UniProt Q8N5S9); details: Compound concentration 1.0 uM
[28] = target: Death-associated protein kinase 3 (Homo sapiens) (UniProt O43293); details: Compound concentration 1.0 uM
[29] = target: Tyrosine-protein kinase Fes/Fps (Homo sapiens) (UniProt P07332); details: Compound concentration 1.0 uM
[30] = target: Fibroblast growth factor receptor 4 (Homo sapiens) (UniProt P22455); details: Compound concentration 1.0 uM
[31] = target: Serine/threonine-protein kinase mTOR (Homo sapiens) (UniProt P42345)
[32] = target: Tyrosine-protein kinase Fyn (Homo sapiens) (UniProt P06241); details: Compound concentration 1.0 uM
[33] = target: Rhodopsin kinase GRK7 (Homo sapiens) (UniProt Q8WTQ7); details: Compound concentration 1.0 uM
[34] = target: Vascular endothelial growth factor receptor 2 (Homo sapiens) (UniProt P35968)
[35] = target: Mitogen-activated protein kinase kinase kinase 14 (Homo sapiens) (UniProt Q99558); details: Compound concentration 1.0 uM
[36] = target: Mitogen-activated protein kinase kinase kinase 8 (Homo sapiens) (UniProt P41279); details: Compound concentration 1.0 uM
[37] = target: Mitogen-activated protein kinase kinase kinase kinase 5 (Homo sapiens) (UniProt Q9Y4K4); details: Compound concentration 1.0 uM
[38] = target: MAP kinase-activated protein kinase 3 (Homo sapiens) (UniProt Q16644); details: Compound concentration 1.0 uM
[39] = target: MAP kinase-activated protein kinase 5 (Homo sapiens) (UniProt Q8IW41); details: Compound concentration 1.0 uM
[40] = target: Hepatocyte growth factor receptor (Homo sapiens) (UniProt P08581)
[41] = target: Protein kinase C theta type (Homo sapiens) (UniProt Q04759); details: Compound concentration 1.0 uM
[42] = target: Tyrosine-protein kinase SYK (Homo sapiens) (UniProt P43405)
[43] = target: Serine/threonine-protein kinase 3 (Homo sapiens) (UniProt Q13188); details: Compound concentration 10.0 uM

AP2-associated protein kinase 1, sequence (Q2M2I8 whole entry, looked up): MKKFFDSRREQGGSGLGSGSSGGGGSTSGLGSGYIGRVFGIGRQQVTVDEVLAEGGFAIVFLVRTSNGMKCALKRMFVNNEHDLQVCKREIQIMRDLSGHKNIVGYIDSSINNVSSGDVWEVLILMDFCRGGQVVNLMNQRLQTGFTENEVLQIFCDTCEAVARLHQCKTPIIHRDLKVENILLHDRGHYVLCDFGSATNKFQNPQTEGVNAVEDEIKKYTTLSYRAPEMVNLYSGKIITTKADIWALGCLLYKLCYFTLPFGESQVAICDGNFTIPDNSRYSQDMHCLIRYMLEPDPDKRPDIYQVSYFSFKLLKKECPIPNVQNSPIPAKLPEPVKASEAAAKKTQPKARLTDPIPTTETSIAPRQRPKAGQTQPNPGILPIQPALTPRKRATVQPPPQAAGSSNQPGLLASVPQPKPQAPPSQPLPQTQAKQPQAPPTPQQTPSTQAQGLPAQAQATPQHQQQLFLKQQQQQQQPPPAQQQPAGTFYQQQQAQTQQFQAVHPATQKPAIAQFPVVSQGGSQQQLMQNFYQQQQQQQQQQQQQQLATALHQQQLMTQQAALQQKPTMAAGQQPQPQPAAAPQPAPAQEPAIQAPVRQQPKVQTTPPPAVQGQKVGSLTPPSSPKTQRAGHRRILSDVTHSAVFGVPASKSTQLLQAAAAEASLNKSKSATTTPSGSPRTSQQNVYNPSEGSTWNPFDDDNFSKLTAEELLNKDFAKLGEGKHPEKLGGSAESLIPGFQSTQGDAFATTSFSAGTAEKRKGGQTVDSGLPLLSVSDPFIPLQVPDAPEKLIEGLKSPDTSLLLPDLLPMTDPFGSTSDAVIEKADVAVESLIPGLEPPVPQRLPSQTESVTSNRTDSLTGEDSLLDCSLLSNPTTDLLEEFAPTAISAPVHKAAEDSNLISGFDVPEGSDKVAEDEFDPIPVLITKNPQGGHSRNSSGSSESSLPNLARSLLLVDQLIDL
Vascular endothelial growth factor receptor 2 (Homo sapiens), sequence (P35968 whole entry): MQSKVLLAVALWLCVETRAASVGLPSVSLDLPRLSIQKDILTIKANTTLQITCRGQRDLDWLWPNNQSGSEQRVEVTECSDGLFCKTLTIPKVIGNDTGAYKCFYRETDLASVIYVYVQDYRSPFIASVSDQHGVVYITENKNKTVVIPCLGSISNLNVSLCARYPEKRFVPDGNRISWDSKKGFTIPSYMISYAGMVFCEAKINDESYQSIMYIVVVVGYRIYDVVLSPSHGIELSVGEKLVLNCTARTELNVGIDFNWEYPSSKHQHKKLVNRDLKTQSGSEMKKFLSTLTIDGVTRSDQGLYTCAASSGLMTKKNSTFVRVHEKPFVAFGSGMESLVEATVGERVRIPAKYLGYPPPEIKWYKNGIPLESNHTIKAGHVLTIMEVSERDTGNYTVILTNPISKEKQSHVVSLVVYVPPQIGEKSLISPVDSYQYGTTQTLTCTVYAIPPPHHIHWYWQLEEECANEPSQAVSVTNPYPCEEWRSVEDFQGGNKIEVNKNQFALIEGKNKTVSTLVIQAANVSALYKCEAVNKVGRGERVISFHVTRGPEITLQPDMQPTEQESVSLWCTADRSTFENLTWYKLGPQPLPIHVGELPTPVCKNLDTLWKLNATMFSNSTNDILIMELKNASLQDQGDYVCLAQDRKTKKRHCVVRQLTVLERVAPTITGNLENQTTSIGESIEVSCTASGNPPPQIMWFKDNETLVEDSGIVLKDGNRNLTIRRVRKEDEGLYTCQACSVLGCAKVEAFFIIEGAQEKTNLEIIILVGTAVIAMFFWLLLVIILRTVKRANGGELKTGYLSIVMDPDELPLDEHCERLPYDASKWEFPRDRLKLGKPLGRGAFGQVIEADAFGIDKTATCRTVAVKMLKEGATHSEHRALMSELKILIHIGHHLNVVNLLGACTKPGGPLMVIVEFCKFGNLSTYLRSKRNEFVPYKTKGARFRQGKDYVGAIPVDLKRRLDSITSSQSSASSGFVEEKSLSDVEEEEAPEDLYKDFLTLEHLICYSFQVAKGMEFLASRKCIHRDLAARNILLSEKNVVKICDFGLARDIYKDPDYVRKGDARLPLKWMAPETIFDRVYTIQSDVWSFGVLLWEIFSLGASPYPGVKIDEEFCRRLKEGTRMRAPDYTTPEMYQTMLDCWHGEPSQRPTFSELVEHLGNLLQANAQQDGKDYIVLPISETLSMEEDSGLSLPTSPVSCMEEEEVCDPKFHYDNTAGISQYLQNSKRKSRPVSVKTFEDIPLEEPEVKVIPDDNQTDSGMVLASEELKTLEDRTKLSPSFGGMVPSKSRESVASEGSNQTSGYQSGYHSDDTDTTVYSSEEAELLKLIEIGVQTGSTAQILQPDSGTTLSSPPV
Hepatocyte growth factor receptor (Homo sapiens), sequence (P08581 whole entry): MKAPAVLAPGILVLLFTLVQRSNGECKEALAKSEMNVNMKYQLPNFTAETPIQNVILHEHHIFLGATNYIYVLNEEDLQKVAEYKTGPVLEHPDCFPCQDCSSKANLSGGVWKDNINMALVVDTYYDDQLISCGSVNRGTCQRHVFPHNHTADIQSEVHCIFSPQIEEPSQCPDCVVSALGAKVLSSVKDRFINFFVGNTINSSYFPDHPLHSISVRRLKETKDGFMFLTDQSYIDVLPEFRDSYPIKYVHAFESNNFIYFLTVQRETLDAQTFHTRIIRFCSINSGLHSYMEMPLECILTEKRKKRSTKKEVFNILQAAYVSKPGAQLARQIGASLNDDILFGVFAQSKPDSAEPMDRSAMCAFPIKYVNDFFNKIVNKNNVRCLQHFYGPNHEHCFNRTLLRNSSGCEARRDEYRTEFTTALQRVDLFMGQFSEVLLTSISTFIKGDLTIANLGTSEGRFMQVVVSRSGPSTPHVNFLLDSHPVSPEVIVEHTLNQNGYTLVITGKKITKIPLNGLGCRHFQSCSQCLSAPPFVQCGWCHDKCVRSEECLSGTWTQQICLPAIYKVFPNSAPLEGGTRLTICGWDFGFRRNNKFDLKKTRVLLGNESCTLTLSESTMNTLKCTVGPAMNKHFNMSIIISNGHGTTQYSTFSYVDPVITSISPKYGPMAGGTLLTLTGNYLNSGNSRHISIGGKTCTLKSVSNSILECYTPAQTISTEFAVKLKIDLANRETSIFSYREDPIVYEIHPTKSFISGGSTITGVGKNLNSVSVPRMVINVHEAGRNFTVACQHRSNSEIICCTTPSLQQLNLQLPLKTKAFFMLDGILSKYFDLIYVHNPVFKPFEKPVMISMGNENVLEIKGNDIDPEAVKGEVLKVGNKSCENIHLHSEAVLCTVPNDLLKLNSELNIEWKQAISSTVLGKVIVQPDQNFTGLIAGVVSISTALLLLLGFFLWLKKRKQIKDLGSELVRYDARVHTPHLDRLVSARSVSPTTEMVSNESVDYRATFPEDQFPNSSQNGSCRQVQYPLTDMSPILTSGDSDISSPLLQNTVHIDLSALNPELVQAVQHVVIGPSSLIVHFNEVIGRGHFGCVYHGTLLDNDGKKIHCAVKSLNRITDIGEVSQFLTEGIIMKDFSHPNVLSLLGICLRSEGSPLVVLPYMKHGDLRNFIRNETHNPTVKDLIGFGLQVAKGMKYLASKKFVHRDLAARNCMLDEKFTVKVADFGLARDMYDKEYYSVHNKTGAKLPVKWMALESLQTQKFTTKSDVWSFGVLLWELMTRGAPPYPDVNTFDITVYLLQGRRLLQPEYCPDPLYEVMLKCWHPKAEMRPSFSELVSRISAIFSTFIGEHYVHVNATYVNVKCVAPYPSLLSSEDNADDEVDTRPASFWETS
Proto-oncogene tyrosine-protein kinase receptor Ret (Homo sapiens), sequence (P07949 whole entry): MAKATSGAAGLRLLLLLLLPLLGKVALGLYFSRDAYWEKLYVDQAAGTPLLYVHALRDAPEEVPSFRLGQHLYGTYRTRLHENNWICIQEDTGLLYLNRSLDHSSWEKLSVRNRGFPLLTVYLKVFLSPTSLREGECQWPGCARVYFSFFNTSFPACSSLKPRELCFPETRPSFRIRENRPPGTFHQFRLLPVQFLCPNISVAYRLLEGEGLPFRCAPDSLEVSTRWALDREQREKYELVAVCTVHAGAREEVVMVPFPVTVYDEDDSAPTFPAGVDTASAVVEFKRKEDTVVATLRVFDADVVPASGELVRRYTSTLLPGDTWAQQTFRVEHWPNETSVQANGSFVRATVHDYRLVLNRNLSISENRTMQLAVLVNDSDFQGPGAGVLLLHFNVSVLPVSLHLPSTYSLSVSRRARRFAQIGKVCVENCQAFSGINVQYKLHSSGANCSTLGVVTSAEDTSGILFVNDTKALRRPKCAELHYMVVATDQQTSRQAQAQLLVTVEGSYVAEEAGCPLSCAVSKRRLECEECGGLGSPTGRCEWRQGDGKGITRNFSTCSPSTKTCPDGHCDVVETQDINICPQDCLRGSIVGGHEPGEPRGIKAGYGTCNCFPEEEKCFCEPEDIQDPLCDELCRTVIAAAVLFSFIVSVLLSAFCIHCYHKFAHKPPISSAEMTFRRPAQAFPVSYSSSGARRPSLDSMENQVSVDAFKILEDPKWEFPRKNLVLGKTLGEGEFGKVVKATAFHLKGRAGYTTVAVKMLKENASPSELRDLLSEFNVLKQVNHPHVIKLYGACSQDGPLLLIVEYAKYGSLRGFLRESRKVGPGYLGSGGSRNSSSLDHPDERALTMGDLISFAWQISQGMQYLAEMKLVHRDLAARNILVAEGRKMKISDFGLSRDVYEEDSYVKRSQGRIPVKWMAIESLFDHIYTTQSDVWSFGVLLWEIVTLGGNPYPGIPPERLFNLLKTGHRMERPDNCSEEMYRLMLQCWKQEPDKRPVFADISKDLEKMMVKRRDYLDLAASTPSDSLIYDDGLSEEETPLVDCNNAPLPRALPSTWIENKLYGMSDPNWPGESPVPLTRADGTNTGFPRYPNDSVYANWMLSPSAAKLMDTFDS
Chymase (Homo sapiens), sequence (P23946 whole entry): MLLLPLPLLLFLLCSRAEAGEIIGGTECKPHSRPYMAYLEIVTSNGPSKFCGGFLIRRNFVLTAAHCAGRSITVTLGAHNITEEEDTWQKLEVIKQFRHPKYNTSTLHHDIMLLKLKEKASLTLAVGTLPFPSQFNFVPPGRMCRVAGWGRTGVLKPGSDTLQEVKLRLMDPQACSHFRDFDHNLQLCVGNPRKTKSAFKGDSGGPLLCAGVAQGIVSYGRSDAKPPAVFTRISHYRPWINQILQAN

`CCC(F)(F)c1cc(N2CCC(S(C)(=O)=O)CC2)nc2sc(C(N)=O)c(N)c12` [BI-605906] gave a residual activity [1] of 74%, a residual activity [2] of 80% and a residual activity [3] of 102%. The residual activity [4] was 75%, the residual activity [5] was 68% and the residual activity ([6]; Compound concentration 1.0 uM) was 60%. For the same molecule, the residual activity ([6]; Compound concentration 10.0 uM) was 32%, the residual activity [7] was 88% and the residual activity [8] was 74%. The residual activity [9] was 78.3%, the residual activity [10] was 75.6% and the residual activity [11] was 66.9%. For the same molecule, the inhibition [12] was 1.69%, the inhibition [13] was 13.4% and the inhibition [14] was 8.84%. It also gave an inhibition [15] of 13.7%, an inhibition [16] of -8.38% and an inhibition [17] of 51.9%. For the same molecule, the residual activity [18] was 93%, the residual activity [19] was 105% and the residual activity [20] was 101%. The residual activity ([21]; Compound concentration 0.001 uM) was 101%, the residual activity ([21]; Compound concentration 1.0 uM) was 13% and the residual activity ([21]; Compound concentration 20.0 uM) was 4%. For the same molecule, the residual activity [22] was 99%, the residual activity [23] was 96% and the residual activity [24] was 82%. It also gave a residual activity [25] of 98%, a residual activity [26] of 100% and a residual activity [27] of 93%. It also gave a residual activity [28] of 101%, a residual activity [29] of 91% and a residual activity [30] of 96%. The residual activity ([31]; Compound concentration 1.0 uM) was 99%, the residual activity ([31]; Compound concentration 10.0 uM) was 98% and the residual activity [32] was 89%. For the same molecule, the residual activity [33] was 101%, the residual activity ([34]; Compound concentration 1.0 uM) was 98% and the residual activity ([34]; Compound concentration 10.0 uM) was 79%. The residual activity [35] was 100%, the residual activity [36] was 90% and the residual activity [37] was 101%. It also gave a residual activity [38] of 93%, a residual activity [39] of 92% and a residual activity ([40]; Compound concentration 1.0 uM) of 103%. It also gave a residual activity ([40]; Compound concentration 10.0 uM) of 90%, a residual activity [41] of 101% and a residual activity ([42]; Compound concentration 1.0 uM) of 94%. The residual activity ([42]; Compound concentration 10.0 uM) was 97% and the residual activity [43] was 91%.
